Target: T1, human FSH receptor (Homo sapiens, UniProt P23945)
T1 construct: expressed in transfected cells; host or cells: CHO cells (hFSHR clone 16)
T1 sequence (P23945 18-695): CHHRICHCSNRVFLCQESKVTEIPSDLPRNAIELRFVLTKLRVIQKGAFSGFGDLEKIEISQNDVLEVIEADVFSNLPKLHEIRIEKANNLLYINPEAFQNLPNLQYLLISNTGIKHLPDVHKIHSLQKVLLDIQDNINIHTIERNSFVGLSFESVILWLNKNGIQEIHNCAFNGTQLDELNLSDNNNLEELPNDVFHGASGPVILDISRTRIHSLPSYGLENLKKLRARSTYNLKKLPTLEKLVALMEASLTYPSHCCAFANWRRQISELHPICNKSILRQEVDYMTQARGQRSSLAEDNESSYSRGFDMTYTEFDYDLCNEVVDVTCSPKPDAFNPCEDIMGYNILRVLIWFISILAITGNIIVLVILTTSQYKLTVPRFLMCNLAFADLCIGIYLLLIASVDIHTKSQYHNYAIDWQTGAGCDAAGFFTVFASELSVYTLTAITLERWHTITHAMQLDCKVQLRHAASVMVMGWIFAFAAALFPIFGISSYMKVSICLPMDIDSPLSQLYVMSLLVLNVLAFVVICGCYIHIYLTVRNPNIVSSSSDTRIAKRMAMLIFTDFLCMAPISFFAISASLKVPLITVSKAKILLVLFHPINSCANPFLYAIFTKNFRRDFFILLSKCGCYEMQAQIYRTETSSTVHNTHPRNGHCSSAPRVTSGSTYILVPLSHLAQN
Assay: HTRF assay for measuring cAMP in cells (FSH antagonism)
Type: cell-based
Settings: FSH antagonistic effect; hFSHR clone 16 cells (CHO cells stably transfected with the human FSH receptor); in the presence of 1 e-9 mol/I hFSH; 37°C for 2h
Experimental: HTRF assay for measuring cAMP in cells
The method is based on a competitive immunoassay between native cAMP, which has been produced by the cells, and cAMP which is labelled with cAMPD2 conjugate. The tracer binding was visualized by a monoclonal antibody, anti-cAMP labelled with cryptate [HTRF = homogeneous time-resolved fluorescence]. The specific signal is inversely proportional to the cAMP concentration of the samples employed. The 665nm/ 620nm fluorescence ratio was evaluated.
The following material was used: 96-well plates for the tissue culture, 96-well plates with black edge and black base (e.g. Fluotrac 600 from Greiner), 96-well plates for the substance dilutions of polypropylene and cAMP Femtomolar (4000wells Kit, CIS Bio International # 62AM5PEJ). The following reagents were used: BSA (bovine serum albumin) Fraction V protease-free, IBMX (3-isobutyl-1-methylxanthine), hFSH (human follicle stimulating hormone), Triton X-100 analytical grade, potassium fluoride analytical grade, G 418 (Geneticin) and Accutase. • Buffer 1 (washing and testing buffer) contained PBS, 1 mM CaCl2, 1 mM MgCl2, 0.2% glucose; 0.1% BSA, 1 mM IBMX. • Buffer 2 (2x lysis buffer) contained 1% Triton X-100 in PBS (without CaCl2 and MgCl2). • Buffer 3 (assay buffer) contained 50 mM potassium phosphate buffer (pH 7.0); 800 mM potassium fluoride; 0.2% BSA (always added fresh).
On day 1, the cells were seeded in 96-well plates (3x10^4 cells per well hFSHR clone 16 cells (CHO cells stably transfected with the human FSH receptor in 150 µl of medium). The next day, test substance dilutions were made up. For this purpose, all the substances were diluted in ice-cold buffer 1 (with or without hFSH), and the substance dilutions were placed on ice until applied to the cells.
The cell supernatant was then aspirated off, and the cells were washed 2x with 200 µl of buffer 1. The cells were treated with 60 µl of the appropriate substance concentrations at 37°C for 2h. The cells were then lysed with 60 µl of buffer 2 (put onto the supernatant) (on a plate shaker at RT for 30 min).
The test conjugates (cAMP-D2 and anti-cAMP cryptate, CIS Bio) were diluted in buffer 3 in accordance with the manufacturers' information. The actual mixture for measurement was pipetted into a black 96-well plate (in each case 15 µl of the cell lysate diluted with 35 µl of buffer 1; firstly 25 µl of cAMP-D2 conjugate were pipetted and, after 10 min, 25 µl of the anti-cAMP cryptate were added). This is followed by incubation at RT for 90 minutes. The measurement was carried out in a PheraStar (BMG).
1) hFSHr clone 16 Ham's F12 PSG 10% FCS 700 µg/ml G 418 (Geneticin) from PAA.
Dose-effect curve (hFSH) for the human receptor: 1e-8, 3e-9, 1e-9, 3e-10, 1e-10, 3e-11, 1e-11, 3e-12 mol/l.
The test substances were employed in suitable dilutions in the absence (test for agonism) and in the presence of 1 e-9 mol/I hFSH.
The values of the well ratio were averaged and then entered directly in SigmaPlot versus the concentrations. The maximum and minimum values were determined for each plate, and half the difference is to be regarded as IC50.

| IC50 | SMILES |
| --- | --- |
| 4 µM | CNC(=O)c1ccc(-c2ccc(OC)c(S(=O)(=O)N[C@@H](CO)Cc3c[nH]c4ccccc34)c2)cc1Cl [Example 3, 3-Chloro-3'-[(R)-2-hydroxy-1-(1H-indol-3-ylmethyl)-ethylsulfamoyl]-4'-methoxybiphenyl-4-carboxylic acid me-thylamide] |
| 0.18 µM | CNC(=O)c1ccc(-c2ccc(OC(C)C)c(S(=O)(=O)N[C@@H](CO)Cc3c[nH]c4ccccc34)c2)cc1Cl [Example 9, 3-Chloro-3'-[(R)-2-hydroxy-1-(1H-indol-3-ylmethyl)-ethylsulfamoyl]-4'-isopropoxybiphenyl-4-carboxylic acid methylamide] |

Continued, compound first:

| SMILES | IC50 |
| --- | --- |
| COc1ccc(-c2cc(OC)c(OC)c(OC)c2)cc1S(=O)(=O)N[C@@H](CO)Cc1c[nH]c2ccccc12 [Example 1, 4,3',4',5'-Tetramethoxy-biphenyl-3-sulfonic acid [(R)-2-hydroxy-1-(1H-indol-3-ylmethyl)-ethyl]-amide] | 3.5 µM |
| CNC(=O)c1ccc(C#Cc2ccc(OC)c(S(=O)(=O)N[C@@H](CO)Cc3c[nH]c4ccccc34)c2)cc1 [Example 18, 4-{3-[(R)-2-Hydroxy-1-(1H-indol-3-ylmethyl)-ethylsulfamoyl]-4-methoxyphenylethynyl}-N-methyl-benzamide] | 2.5 µM |
| CNC(=O)c1ccc(C#Cc2ccc(OC)c(S(=O)(=O)N[C@H](Cc3c[nH]c4ccccc34)C(C)(C)O)c2)cc1 [Example 22, 4-{3-[(R)-2-Hydroxy-1-(1H-indol-3-ylmethyl)-2-methyl-propyisulfamoyl]-4-methoxyphenylethynyl}-N-methyl-benzamide] | 3.5 µM |

Source: patent EP1964834A1, “Sulphonyltryptophanols” (Bayer Schering Pharma Aktiengesellschaft, priority 2007, dated 2008)
